Data reported in paper PMC7262662 (BioMed Research International, 2020).
Like-named read-outs stand apart in the source and are kept apart here. Marks after values point to notes of the source that are not given here.

How the values were obtained:
[1] = system: FIPV strain WSU 79-1146; assay: Cytopathic effect inhibition assay (time of addition, MTT); type: cell-based, feline infectious peritonitis virus
Procedure: The cytopathic effect (CPE) inhibition assay with slight modifications was used as previously described. […] In pretreatment, the compounds were included in the cell culture medium for 8 h and were removed prior to virus infection. In cotreatment, the compounds were mixed with virus in the medium, added simultaneously to the cells, and left on the cells throughout. For posttreatment, the compounds were added to the cells 2 h postinfection (hpi) and remained throughout the time of infection. […] After incubation at 37°C for 48 and 72 h, the cell viability was determined by MTT.
The percentage of protection was calculated based on the OD using the following formula: (3) Percentage of protection %=OD570 T−OD570 V/OD570 C−OD570 V×100, where T is the treated sample, V is the virus-infected control, and C is the negative control.
The median effective concentration (EC50) is the concentration of compound required to achieve 50% protection against virus-induced CPE.

[2] = Pharmacokinetics study in healthy cats (plasma curcumin by HPLC); type: in vivo; conditions: for Curcumin content in plasma: any interval, not detected, below detection limit of HPLC; for Tmax / Cmax / AUC(0-t): po, 250 mg/kg; for Cmax: plasma curcumin
Procedure: Single-dosing (s.i.d.) and two-dosing (b.i.d.) oral administration of curcumin and Cur-CS nanoparticle pharmacokinetics study spanning 24 h was performed in the cats, which weighed 1.5–3.5 kg. The cats were randomly divided into four groups, and each group contained four cats. […] Prior to and 0.5, 1, 2, 3, 4, 8, 12, and 24 h after the treatments, 1 mL blood was harvested via jugular, cephalic, or saphenous venipuncture into lithium heparinized tubes (BD, Franklin Lakes, NJ, USA). The plasma was immediately centrifuged at 500 g for 5 min at 4°C and stored at -80°C until use. The cats then underwent a 2-week washout and rest period prior to testing on the following treatment and series of blood collection. All the cats were neutered at the end of the study and adopted by the public. Curcumin was extracted from plasma using the polar solvent extraction method. Ethyl acetate (500 μL) was added to 200 μL plasma and vortexed for 10 min. The samples were centrifuged at 4000 g at 10°C for 15 min, and the upper ethyl acetate layer was transferred to a new 1.5 mL tube. The extraction was repeated twice and performed under dim light conditions to prevent the degradation of curcumin. […] An aliquot of a 20 μL sample was analysed for quantifying the curcumin in the plasma by HPLC. The curcumin was quantified using a Series 1200 Quaternary HPLC system (Agilent Technologies, Santa Clara, CA, USA) with an UV-Vis detector equipped with an Eclipse Plus C18 column (Agilent Technologies). The HPLC system was first optimised as previously described and further adjusted to suitable settings. […] The flow rate of the mobile phase was maintained at 1 mL/min with an injection volume of 20 μL sample, where the column temperature was maintained at 35°C. The detector signal of the HPLC system for curcumin detection was adjusted to 425 nm. A 6-point calibration curve was prepared by serial dilution of 1 mg/mL curcumin stock solution in methanol. Curcumin concentrations (ng/mL) in the plasma were calculated based on the calibration curve. Time to reach maximum plasma concentration (Tmax) and maximum plasma concentration (Cmax) values were obtained directly from the measured data. The area under the curve from 0 to t (AUC0-t) was calculated using the linear-log trapezoidal method.

[3] = system: different cells; design: method as in PMID 23658730, doi:10.4236/aim.2016.64027, PMID 20603153; conditions: ref [19], [60], [61]; cited from earlier work
[4] = plasma, oral 250 mg/kg, single dosing (s.i.d.)

- Curcumin content in plasma ([2]; 50 mg/kg): < 25 ng/mL
- Curcumin content in plasma ([2]; 100 mg/kg): < 25 ng/mL
- Tmax ([2]; cat, plasma, oral 250 mg/kg, b.i.d. study, as stated in the text (similar to s.i.d. profile)): 2 to 4 h
- AUC0-12 as share of AUC0-∞ ([2]; oral 250 mg/kg): more than 80%
- AUC(0-inf) [2, 4]: 1370 ± 112 ng·h/mL
- Tmax [2, 4]: 3 h
- Cmax [2, 4]: 220 ± 18.6 ng/mL
- AUC(0-t) ([2]; plasma, oral 250 mg/kg, single dosing (s.i.d.), read-out: AUC0-12): 1140 ± 137 ng·h/mL
- Cmax ([2]; plasma, oral 250 mg/kg, two dosing (b.i.d.) 12 h apart): 241 ± 27.1 ng/mL
- Tmax ([2]; plasma, oral 250 mg/kg, two dosing (b.i.d.), after the second dose): 4 h
- AUC(0-t) ([2]; plasma, oral 250 mg/kg, two dosing (b.i.d.), read-out: AUC0-12): 1510 ± 72.4 ng·h/mL
- AUC(0-t) ([2]; plasma, oral 250 mg/kg, two dosing (b.i.d.), read-out: AUC0-24): 3100 ± 176 ng·h/mL
SMILES: COc1cc(/C=C/C(=O)CC(=O)/C=C/c2ccc(O)c(OC)c2)ccc1O [Curcumin]
- SI ([1]; 48 h, CC50/EC50): 3.72
- EC50 ([1]; Alphacoronavirus 1, 48 h, 50% protection against virus-induced CPE, 100 TCID50 FIPV in CrFK cells): 15.9 µM
- Percentage of protection ([1]; cotreatment, 48 h, 5 μM): 21.98 ± 7.01^b %
- Percentage of protection ([1]; cotreatment, 48 h, 10 μM): 40.08 ± 3.71^d %
- Percentage of protection ([1]; cotreatment, 48 h, 20 μM): 55.95 ± 1.82^e %
- Percentage of protection ([1]; cotreatment, 48 h, 20 μM, listed as curcumin): 56%
- Percentage of protection ([1]; cotreatment, 72 h, 5 μM): 11.99 ± 3.43^b %
- Percentage of protection ([1]; cotreatment, 72 h, 10 μM): 18.82 ± 1.93^c %
- Percentage of protection ([1]; cotreatment, 72 h, 20 μM): 22.25 ± 2.05^c %
- Percentage of protection ([1]; posttreatment, 48 h, 5 μM): 0.08 ± 0.13^a %
- Percentage of protection ([1]; posttreatment, 48 h, 10 μM): 13.31 ± 3.93^b %
- Percentage of protection ([1]; posttreatment, 48 h, 20 μM): 17.28 ± 0.78^bc %
- Percentage of protection ([1]; posttreatment, 72 h, 5 μM): 0.99 ± 1.71^a %
- Percentage of protection ([1]; posttreatment, 72 h, 10 μM): 2.59 ± 1.55^a %
- Percentage of protection ([1]; posttreatment, 72 h, 20 μM): 2.13 ± 1.91^a %
- Percentage of protection ([1]; pretreatment, 48 h, 5 μM): 0.38 ± 0.66^a %
- Percentage of protection ([1]; pretreatment, 48 h, 10 μM): 3.87 ± 1.64^ab %
- Percentage of protection ([1]; pretreatment, 48 h, 20 μM): 12.79 ± 2.27^c %
- Percentage of protection ([1]; pretreatment, 72 h, 5 μM): 1.74 ± 1.06^ab %
- Percentage of protection ([1]; pretreatment, 72 h, 10 μM): 1.16 ± 1.82^a %
- Percentage of protection ([1]; pretreatment, 72 h, 20 μM): 5.12 ± 2.03^bc %
- Exposure up to which no cytotoxic effect was observed [3]: 30 µM
